From US9963445B2, “Chemical compounds” (SYNGENTA PARTICIPATIONS AG, priority 2013, dated 2018)

Tests used:
Assay type in all cases: in vivo
Setaria faberi [1] = experiment: Pre-emergence herbicidal activity, glasshouse pot test; details: pre-emergence spray, rate 1000 g/ha, evaluated after 13 days, scale 0-5
Method in brief: (§1)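 Damage was rated at 13 days from 0 (none) to 5 (total), in a glasshouse kept at 24/16 °C, 14 h light and 65% humidity with watering twice daily. The aqueous spray of active ingredient in 50:50 acetone/water plus 0.5% Tween 20 was applied to soil one day post-sowing, before emergence.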

Amaranthus retroflexus [2] = experiment: as above; details: pre-emergence spray, rate 1000 g/ha, evaluated after 13 days, scale 0-5
Method in brief: as §1

Alopecurus myosuroides [3] = experiment: as above; details: pre-emergence spray, rate 1000 g/ha, evaluated after 13 days, scale 0-5
Method in brief: as §1

zea mays [4] = experiment: as above; details: pre-emergence spray, rate 1000 g/ha, evaluated after 13 days, scale 0-5
Method in brief: as §1

Echinochloa crus-galli [5] = experiment: as above; details: pre-emergence spray, rate 1000 g/ha, evaluated after 13 days, scale 0-5
Method in brief: as §1

Abutilon theophrasti [6] = experiment: as above; details: pre-emergence spray, rate 1000 g/ha, evaluated after 13 days, scale 0-5
Method in brief: as §1

Setaria faberi [7] = experiment: Post-emergence herbicidal activity, glasshouse pot test; design: key: 0 = no damage to plant, 5 = total damage to plant; details: Application post-emergence, rate 1000 g/ha, evaluated after 13 days
Method in brief: (§2)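 Seeds sown in standard soil in pots, grown 8 days in glasshouse (24/16 °C day/night, 14 h light, 65% humidity), then sprayed with aqueous solution from active ingredient formulated in acetone/water (50:50) with 0.5% Tween 20. Plants regrown under same conditions, watered twice daily; damage scored after 13 days (0 none–5 total).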

Amaranthus retroflexus [8] = experiment: as above; design: key: 0 = no damage to plant, 5 = total damage to plant; details: Application post-emergence, rate 1000 g/ha, evaluated after 13 days
Method in brief: as §2

Alopecurus myosuroides [9] = experiment: as above; design: key: 0 = no damage to plant, 5 = total damage to plant; details: Application post-emergence, rate 1000 g/ha, evaluated after 13 days
Method in brief: as §2

zea mays [10] = experiment: as above; design: key: 0 = no damage to plant, 5 = total damage to plant; details: Application post-emergence, rate 1000 g/ha, evaluated after 13 days
Method in brief: as §2

Echinochloa crus-galli [11] = experiment: as above; design: key: 0 = no damage to plant, 5 = total damage to plant; details: Application post-emergence, rate 1000 g/ha, evaluated after 13 days
Method in brief: as §2

Abutilon theophrasti [12] = experiment: as above; design: key: 0 = no damage to plant, 5 = total damage to plant; details: Application post-emergence, rate 1000 g/ha, evaluated after 13 days
Method in brief: as §2

Row | Molecule | SETFA damage score, application pre-emergence (Setaria faberi [1]) | AMARE damage score, application pre-emergence (Amaranthus retroflexus [2]) | ALOMY damage score, application pre-emergence (Alopecurus myosuroides [3]) | ZEAMX damage score, application pre-emergence (zea mays [4]) | ECHCG damage score, application pre-emergence (Echinochloa crus-galli [5]) | ABUTH damage score, application pre-emergence (Abutilon theophrasti [6]) | SETFA herbicidal damage score (Setaria faberi [7]) | AMARE herbicidal damage score (Amaranthus retroflexus [8]) | ALOMY herbicidal damage score (Alopecurus myosuroides [9]) | ZEAMX herbicidal damage score (zea mays [10]) | ECHCG herbicidal damage score (Echinochloa crus-galli [11]) | ABUTH herbicidal damage score (Abutilon theophrasti [12])
1 | COC1=C(C)C(O)N(c2cc(C(C)C)c(Cl)nn2)C1=O (stereo not drawn) [BI2] | 5 | 4 | 4 | 3 | 5 | 4 | 5 | 5 | 5 | 3 | 5 | 5
2 | CC1=C(Br)C(=O)N(c2cc(C(F)(F)F)ncn2)C1O (stereo not drawn) [CG1] | 4 | 1 | 3 | 0 | 5 | 4 | 5 | 2 | 5 | 3 | 5 | 4
3 | CC1=C(Cl)C(=O)N(c2cc(C(C)(F)F)ccn2)C1O (stereo not drawn) [AF32] | 5 | 5 | 3 | 2 | 4 | 5 | 5 | 5 | 4 | 4 | 5 | 5
4 | 4-chloro-2-hydroxy-1-[5-iodo-4-(trifluoromethyl)-2-pyridyl]-3-methyl-2H-pyrrol-5-one [AF76] | 5 | 5 | 3 | 1 | 4 | 4 | 5 | 5 | 5 | 1 | 5 | 5
5 | COC1=C(C)C(O)N(c2cc(C(C)(F)F)c(Cl)nn2)C1=O (stereo not drawn) [BI22] | 4 | 5 | 4 | 3 | 5 | 4 | 5 | 5 | 5 | 3 | 5 | 5
6 | COC1=C(C)C(O)N(c2cc(C(C)(C)C)ccn2)C1=O (stereo not drawn) [AI4] | 5 | 5 | 3 | 1 | 4 | 4 | 5 | 5 | 5 | 3 | 5 | 5
7 | COc1cc(N2C(=O)C(Cl)=C(C)C2O)ncn1 (stereo not drawn) [CF21] | 4 | 4 | 2 | 2 | 5 | 1 | 5 | 3 | 4 | 3 | 5 | 3
8 | C#CC(C)(C)NC(=O)c1ccc(N2C(=O)C(OC)=C(C)C2O)nn1 (stereo not drawn) [BI27] | 4 | 5 | 2 | 1 | 4 | 4 | 5 | 5 | 4 | 4 | 5 | 5
9 | COC1=C(C)C(O)N(c2cc(C(F)(F)F)c(-c3cnc(OC)nc3)cn2)C1=O (stereo not drawn) [AI14] | 3 | 5 | 2 | 1 | 2 | 1 | 5 | 5 | 4 | 3 | 5 | 5
10 | CCC1=C(Cl)C(=O)N(c2cc(C(F)(F)F)ccn2)C1O (stereo not drawn) [AF84, 4-chloro-3-ethyl-2-hydroxy-1-[4-(trifluoromethyl)-2-pyridyl]-2H-pyrrol-5-one] | 2 | 5 | 3 | 0 | 5 | 2 | 5 | 4 | 5 | 3 | 5 | 5
11 | CC1=C(Cl)C(=O)N(c2cc(C(C)F)ccn2)C1O (stereo not drawn) [AF40] | 5 | 5 | 2 | 2 | 4 | 5 | 4 | 5 | 3 | 5 | 5 | 5
12 | CC1=C(Cl)C(=O)N(c2cc(C(F)(F)F)cc(Cl)n2)C1O (stereo not drawn) [AF37] | 1 | 0 | 3 | 0 | 0 | 0 | 4 | 0 | 4 | 1 | 4 | 2
13 | CC1=C(Cl)C(=O)N(c2ncc(C#N)c(C(C)(C)C)n2)C1O (stereo not drawn) [DF6] | 4 | 5 | 3 | 2 | 4 | 2 | 5 | 5 | 4 | 1 | 5 | 5
14 | CC1=C(Cl)C(=O)N(c2cc(C(C)(C)C#N)ccn2)C1O (stereo not drawn) [AF100] | 5 | 5 | 4 | 3 | 5 | 3 | 5 | 5 | 5 | 4 | 5 | 5
15 | CC1=C(Cl)C(=O)N(c2cc(C(F)(F)Cl)ccn2)C1O (stereo not drawn) [AF98] | 5 | 5 | 3 | 2 | 5 | 1 | 5 | 5 | 5 | 3 | 5 | 5
16 | C=C(OCC)c1nnc(N2C(=O)C(OC)=C(C)C2O)cc1C(C)(F)F (stereo not drawn) [BI19] | 3 | 5 | 3 | 2 | 5 | 5 | 4 | 5 | 4 | 3 | 5 | 5
